ChEMBL document CHEMBL5365431 (J Med Chem, 2023)

Tests used:
[1] = target: Poly [ADP-ribose] polymerase 1 (Homo sapiens, UniProt P09874); assay: Inhibition of PARP1 (unknown origin) using histone as substrate by ELISA
CAPAN-1 [2] = assay: Antiproliferative activity against human CAPAN-1 cells assessed as cell proliferation inhibition incubated for 7 days by SRB assay; type: functional, cell-based
[3] = Antiproliferative activity against human Olaparib-resistant CAPAN-1 cells assessed as cell proliferation inhibition incubated for 7 days by SRB assay; type: functional, cell-based
CAPAN-1 [4] = assay: Antiproliferative activity against human Talazoparib-resistant CAPAN-1 cells assessed as cell proliferation inhibition incubated for 7 days by SRB assay; type: functional, cell-based
[5] = Stabilization of human His-tagged PARP1-DNA complex assessed as increase in fluorescence signal incubated for 60 mins using NAD+ as substrate by DSB fluorescence polarization assay
[6] = Half life in Sprague-Dawley rat at 5 mg/kg, iv and measured upto 24 hrs; type: ADME, organism-based; conditions: in vivo
[7] = Clearance in Sprague-Dawley rat at 5 mg/kg, iv and measured upto 24 hrs; type: ADME, organism-based; conditions: in vivo

Chain of Poly [ADP-ribose] polymerase 1 (P09874 whole entry): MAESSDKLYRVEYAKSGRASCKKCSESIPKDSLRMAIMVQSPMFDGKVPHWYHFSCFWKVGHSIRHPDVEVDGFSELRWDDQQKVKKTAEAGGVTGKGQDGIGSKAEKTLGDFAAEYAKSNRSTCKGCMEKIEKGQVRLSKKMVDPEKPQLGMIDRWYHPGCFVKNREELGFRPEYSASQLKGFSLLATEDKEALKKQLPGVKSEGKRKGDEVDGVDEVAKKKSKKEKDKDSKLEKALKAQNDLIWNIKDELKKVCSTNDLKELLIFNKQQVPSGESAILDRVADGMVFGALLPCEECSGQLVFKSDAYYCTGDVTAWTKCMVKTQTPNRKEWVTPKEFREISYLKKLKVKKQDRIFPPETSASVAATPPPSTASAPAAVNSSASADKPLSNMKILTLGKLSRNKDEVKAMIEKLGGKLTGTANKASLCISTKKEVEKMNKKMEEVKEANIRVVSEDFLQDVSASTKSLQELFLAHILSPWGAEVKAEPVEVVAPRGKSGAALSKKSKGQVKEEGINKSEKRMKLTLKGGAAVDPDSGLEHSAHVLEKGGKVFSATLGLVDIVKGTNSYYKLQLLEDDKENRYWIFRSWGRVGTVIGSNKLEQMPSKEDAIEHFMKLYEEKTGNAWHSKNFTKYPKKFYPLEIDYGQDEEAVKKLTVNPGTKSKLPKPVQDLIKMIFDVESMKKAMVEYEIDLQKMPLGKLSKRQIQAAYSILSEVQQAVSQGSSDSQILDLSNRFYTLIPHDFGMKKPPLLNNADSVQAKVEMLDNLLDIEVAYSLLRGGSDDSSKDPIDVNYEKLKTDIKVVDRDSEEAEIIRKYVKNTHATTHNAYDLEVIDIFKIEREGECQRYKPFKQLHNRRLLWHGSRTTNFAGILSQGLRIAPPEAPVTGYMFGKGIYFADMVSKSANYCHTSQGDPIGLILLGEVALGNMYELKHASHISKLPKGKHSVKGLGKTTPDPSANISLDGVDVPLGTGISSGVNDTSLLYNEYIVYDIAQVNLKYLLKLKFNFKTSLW

| Compound | IC50 [1] | IC50 (CAPAN-1 [2]) | IC50 [3] | IC50 (CAPAN-1 [4]) | EC50 [5] | half-life [6] | clearance [7] |
| --- | --- | --- | --- | --- | --- | --- | --- |
| O=C(c1cc(Cc2n[nH]c(=O)c3ccccc23)ccc1F)N1CCn2c(nnc2-c2ccoc2)C1 | 0.44 nM | 8.81 nM | 73.6 nM | 42.5 nM |  |  |  |
| CCN(CC)Cc1ccc(-c2nnc3n2CCN(C(=O)c2cc(Cc4n[nH]c(=O)c5ccccc45)ccc2F)C3)o1 | 0.96 nM | 98.3 nM | 812 nM | 701 nM |  |  |  |
| O=C(c1cc(Cc2n[nH]c(=O)c3ccccc23)ccc1F)N1CCn2c(nnc2C2CCOC2)C1 (stereo not given) | 1.91 nM | 39.1 nM | 1110 nM | 517 nM |  |  |  |
| O=C(c1cc(Cc2n[nH]c(=O)c3ccccc23)ccc1F)N1CCn2c(nnc2-c2ccc(C3COC3)o2)C1 | 6.19 nM | 15.5 nM | 363 nM | 191 nM |  |  |  |
| Cc1nc(-c2nnc3n2CCN(C(=O)c2cc(Cc4n[nH]c(=O)c5ccccc45)ccc2F)C3)cs1 | 2.14 nM | 19 nM |  | 203 nM |  |  |  |
| O=C(c1cc(Cc2n[nH]c(=O)c3ccccc23)ccc1F)N1CCn2c(nnc2-c2ccc(CN3CCCCC3)o2)C1 | 0.17 nM | 56.8 nM | 605 nM | 393 nM |  |  |  |
| N#Cc1ccc(-c2nnc3n2CCN(C(=O)c2cc(Cc4n[nH]c(=O)c5ccccc45)ccc2F)C3)o1 | 0.23 nM | 83.8 nM |  | > 10000 nM |  |  |  |
| CN(C)Cc1ccc(-c2nnc3n2CCN(C(=O)c2cc(Cc4n[nH]c(=O)c5ccccc45)ccc2F)C3)o1 | 1.35 nM | 151 nM | 1030 nM | 941 nM |  |  |  |
| Cc1ccc(-c2nnc3n2CCN(C(=O)c2cc(Cc4n[nH]c(=O)c5ccccc45)ccc2F)C3)o1 | 0.24 nM | 1.82 nM | 8.28 nM | 9.98 nM |  |  |  |
| O=C(c1cc(Cc2n[nH]c(=O)c3ccccc23)ccc1F)N1CCn2c(nnc2-c2ccc(CN3CCC3)o2)C1 | 0.96 nM | 349 nM | 6490 nM | 5590 nM |  |  |  |
| CNCC(F)(F)c1ccc(-c2nnc3n2CCN(C(=O)c2cc(Cc4n[nH]c(=O)c5ccccc45)ccc2F)C3)o1 | 8.15 nM | 24.3 nM | 423 nM | 393 nM |  |  |  |
| O=C(c1cc(Cc2n[nH]c(=O)c3ccccc23)ccc1F)N1CCn2c(nnc2-c2ccc(C(F)(F)CO)o2)C1 | 5.67 nM | 15.9 nM | 137 nM | 115 nM |  |  |  |
| O=C(c1cc(Cc2n[nH]c(=O)c3ccccc23)ccc1F)N1CCn2c(nnc2-c2cc(Br)c(Cl)o2)C1 | < 0.1 nM | 0.24 nM | 20.3 nM | 12.1 nM |  |  |  |
| Cc1cc(-c2nnc3n2CCN(C(=O)c2cc(Cc4n[nH]c(=O)c5ccccc45)ccc2F)C3)oc1C | < 0.001 nM | 1.44 nM | 22.1 nM | 21 nM |  |  |  |
| Cn1ccc(-c2nnc3n2CCN(C(=O)c2cc(Cc4n[nH]c(=O)c5ccccc45)ccc2F)C3)n1 | 6.34 nM | 30.4 nM | 135 nM | 168 nM |  |  |  |
| NCC(F)(F)c1ccc(-c2nnc3n2CCN(C(=O)c2cc(Cc4n[nH]c(=O)c5ccccc45)ccc2F)C3)o1 | 8.49 nM | 122 nM | 766 nM | 627 nM |  |  |  |
| O=C(c1cc(Cc2n[nH]c(=O)c3ccccc23)ccc1F)N1CCn2c(nnc2-c2ccc(Cl)o2)C1 | 0.74 nM | 1.48 nM | 12.6 nM | 5.91 nM |  |  |  |

| Compound | IC50 [1] | IC50 (CAPAN-1 [2]) | IC50 [3] | IC50 (CAPAN-1 [4]) | EC50 [5] | half-life [6] | clearance [7] |
| --- | --- | --- | --- | --- | --- | --- | --- |
| Cc1cccc(-c2nnc3n2CCN(C(=O)c2cc(Cc4n[nH]c(=O)c5ccccc45)ccc2F)C3)n1 | 13.5 nM | 6.47 nM | 42.2 nM | 68.5 nM |  |  |  |
| CNCc1ccc(-c2nnc3n2CCN(C(=O)c2cc(Cc4n[nH]c(=O)c5ccccc45)ccc2F)C3)o1 | 0.86 nM | 500 nM | 6150 nM | 4600 nM |  |  |  |
| O=C(c1cc(Cc2n[nH]c(=O)c3ccccc23)ccc1F)N1CCn2c(nnc2-c2ccc(CN3CCSCC3)o2)C1 | 0.02 nM | 50.5 nM | 618 nM | 404 nM |  |  |  |
| O=C(c1cc(Cc2n[nH]c(=O)c3ccccc23)ccc1F)N1CCn2c(nnc2-c2ccc(C(F)(F)F)o2)C1 | 61.7 nM | 2.32 nM | 52.3 nM | 6.09 nM |  |  |  |
| O=C(c1cc(Cc2n[nH]c(=O)c3ccccc23)ccc1F)N1CCn2c(nnc2-c2ccc(C3CCOCC3)o2)C1 | 2.33 nM | 3.8 nM | 78.2 nM | 78.4 nM |  |  |  |
| O=C(c1cc(Cc2n[nH]c(=O)c3ccccc23)ccc1F)N1CCn2c(nnc2-c2ccc(C(F)F)o2)C1 | 23.1 nM | 6.64 nM | 71.1 nM | 70.3 nM |  |  |  |
| O=C(c1cc(Cc2n[nH]c(=O)c3ccccc23)ccc1F)N1CCn2c(nnc2-c2ccno2)C1 | 0.97 nM | 18.6 nM | 348 nM | 249 nM |  |  |  |
| O=C(c1cc(Cc2n[nH]c(=O)c3ccccc23)ccc1F)N1CCn2c(nnc2-c2ccco2)C1 | 0.26 nM | 7.39 nM | 56.4 nM | 40 nM |  |  |  |
| O=C(c1cc(Cc2n[nH]c(=O)c3ccccc23)ccc1F)N1CCn2c(nnc2-c2ccc([N+](=O)[O-])o2)C1 | 47.4 nM | 5.89 nM | 178 nM | 214 nM |  |  |  |
| NC(=O)c1cccc2cn(-c3ccc([C@@H]4CCCNC4)cc3)nc12 [NIRAPARIB] |  |  |  |  | 621 nM |  |  |
| Cn1ncnc1[C@H]1c2n[nH]c(=O)c3cc(F)cc(c23)N[C@@H]1c1ccc(F)cc1 [TALAZOPARIB] |  | 7.77 nM | 686 nM | 906 nM |  |  |  |
| O=C(c1cc(Cc2n[nH]c(=O)c3ccccc23)ccc1F)N1CCn2c(nnc2-c2ccc(CN3CCOCC3)o2)C1 | 1.28 nM | 290 nM | 5140 nM | 2000 nM |  |  |  |
| O=C(c1cc(Cc2n[nH]c(=O)c3ccccc23)ccc1F)N1CCN(C(=O)C2CC2)CC1 [OLAPARIB] |  |  |  |  | 234 nM | 31.8 min | 34.3 mL/min/kg |
| CP(C)(=O)c1ccc(-c2nnc3n2CCN(C(=O)c2cc(Cc4n[nH]c(=O)c5ccccc45)ccc2F)C3)o1 | 12.9 nM | 3550 nM | > 10000 nM | > 10000 nM |  |  |  |
| Cn1cc(-c2nnc3n2CCN(C(=O)c2cc(Cc4n[nH]c(=O)c5ccccc45)ccc2F)C3)cn1 | 7.32 nM | 351 nM | 7160 nM | 6990 nM |  |  |  |
| O=C(c1cc(Cc2n[nH]c(=O)c3ccccc23)ccc1F)N1CCn2c(nnc2-c2ccc(CN3CCCC3)o2)C1 | 1.26 nM | 161 nM | 1430 nM | 905 nM |  |  |  |
